“And” between values parts separate entries of the source, which are not always exact repeats. Equal entries are not always repeated. “Also recorded” adds a separate entry of the source. Where two headings read alike, the source gives them in different places.
Tests used:
[1] = biological target: T1, hD2LR (Homo sapiens, UniProt P14416); assay: Cell-based functional GPCR assay, Ca2+ mobilization, CHO-D2R; conditions: for % Stimulation, hD2LR: 100 μM compound, % of control agonist response (10 μM DA)
T1 construct: host or cells: CHO (CHO-D2R)
Experimental: (§1) Cell-based functional GPCR assays were conducted in CHO cells and Ba/F3 cells transfected with a plasmid containing the GPCR gene of interest. The functional activity of the test compounds (agonist or antagonist) was evaluated by measuring their effects on cAMP modulation or Ca^2+ ion mobilization, depending on the receptor type. All assays were performed at Eurofins Cerep (Le Bois I’Eveque, France) following their in-house protocol, as stated in our previous reports.
(§2) The functional activity of the test compounds on D2R and 5HT1AR was tested by fluorimetrically evaluating their effect on cytosolic Ca^2+ ion mobilization. […] Then, a fluorescent probe (Fluo8, AAT Bioquest, Sunnyvale, CA, USA) mixed with probenecid in HBSS (Invitrogen, Carlsbad, CA, USA) supplemented with […] (Invitrogen) (pH 7.4) was added to each well, and the cells were allowed to equilibrate for 60 min at 37 °C. […] We then measured the fluorescent intensity, which varied in proportion to the free cytosolic Ca^2+ ion concentration.

[2] = biological target: hD3R (Homo sapiens, UniProt P35462); assay: Cell-based functional GPCR assay, cAMP, CHO-D3R
Experimental: as §1
(§3) The functional activity of the test compounds on D1R, D3R, and D4R was assessed by evaluating the effect on cAMP modulation.

[3] = system: male C57BL/6 mice; assay: Forced swim test; type: in vivo, mouse
Experimental: Male C57BL/6 mice (22–26 g, 7 weeks) were purchased from Orient Bio Inc. (Seongnam-si, Korea), a branch of Charles River Laboratories (Seoul, Republic of Korea), and kept in the University Animal Care Unit for 1 week before the experiments. Five animals were housed per cage and allowed access to water and food ad libitum; the environment was maintained at a constant temperature (23 ± 1 °C) and humidity (60 ± 10%) under a 12 h light/dark cycle (the lights were on from 07:30 to 19:30 h). The treatment and maintenance of the animals were carried out according to the Animal Care and Use Guidelines of Dong-A University, Republic of Korea. All in vivo experiments were performed according to the protocols approved by the Institutional Animal Care and Use Committee of Dong-A University (approved protocol numbers: DIACUC-approved-17-20) and were per the National Institutes of Health guidelines. A forced swim test (FST) was performed in a transparent cylindrical glass cylinder with a diameter of 14 cm and a height of 25 cm filled with 20 cm of water (24 ± 2 °C). Mice were habituated to the experimental environment 1 h before the test. […] Mice were immersed in water and recorded with a video camera for a total of 6 min. Immobility time was analyzed for the last 4 min of the 6 min using a video-based Ethovision System (Noldus, Wageningen, The Netherlands).

[4] = biological target: T2, hD4.4R (Homo sapiens, UniProt P21917); assay: Cell-based functional GPCR assay, cAMP, CHO-D4R; conditions: for % Stimulation, hD4.4R: 100 μM compound, % of control agonist response (300 nM DA)
T2 sequence (P21917 1-419): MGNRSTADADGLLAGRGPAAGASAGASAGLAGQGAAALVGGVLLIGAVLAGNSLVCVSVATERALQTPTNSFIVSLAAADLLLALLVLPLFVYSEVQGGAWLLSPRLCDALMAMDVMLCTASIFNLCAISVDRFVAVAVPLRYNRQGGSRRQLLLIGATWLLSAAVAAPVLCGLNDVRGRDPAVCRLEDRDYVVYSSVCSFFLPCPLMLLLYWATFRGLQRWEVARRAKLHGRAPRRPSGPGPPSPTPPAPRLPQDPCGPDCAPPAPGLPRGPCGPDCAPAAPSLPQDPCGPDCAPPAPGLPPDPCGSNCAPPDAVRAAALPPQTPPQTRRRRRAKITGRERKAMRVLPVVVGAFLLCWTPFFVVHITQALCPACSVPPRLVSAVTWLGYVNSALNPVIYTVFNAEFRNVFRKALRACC
Experimental: as §1, §3

[5] = biological target: T3, hMAO-B (Homo sapiens, UniProt P27338); assay: In vitro hMAO-B inhibition and enzyme kinetics, chemiluminescent MAO-Glo assay; type: biochemical; conditions: for IC50: recombinant hMAO-B, mean ± SD of triplicate experiments; for SI (selective index): ratio of hMAO-A IC50/hMAO-B IC50
T3 construct: purchased Sigma-Aldrich
T3 sequence (P27338 1-520): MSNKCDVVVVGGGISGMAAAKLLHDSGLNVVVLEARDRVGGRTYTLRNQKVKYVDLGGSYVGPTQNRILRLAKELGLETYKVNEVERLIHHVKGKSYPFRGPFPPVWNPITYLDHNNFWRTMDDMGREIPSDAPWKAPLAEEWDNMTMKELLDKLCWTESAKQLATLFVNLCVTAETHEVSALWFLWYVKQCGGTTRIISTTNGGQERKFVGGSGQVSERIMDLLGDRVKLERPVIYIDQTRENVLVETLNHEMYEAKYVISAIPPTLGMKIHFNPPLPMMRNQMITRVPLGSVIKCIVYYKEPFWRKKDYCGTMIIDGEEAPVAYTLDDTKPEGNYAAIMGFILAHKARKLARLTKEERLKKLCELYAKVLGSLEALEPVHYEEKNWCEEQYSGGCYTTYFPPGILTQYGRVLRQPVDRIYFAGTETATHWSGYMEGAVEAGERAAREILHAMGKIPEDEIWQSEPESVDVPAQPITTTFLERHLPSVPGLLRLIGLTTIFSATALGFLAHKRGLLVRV
Experimental: (§4) A chemiluminescent assay was performed in a white, opaque 96-well plate using the MAO-Glo kit (Promega, Madison, WI, USA) to evaluate human monoamine oxidase (hMAO) inhibitory potential. Detailed experimental conditions and procedures were reported previously. The test compounds were evaluated at different concentrations to obtain an IC50 value. The percent of inhibition (%) was obtained with the following equation: % Inhibition = (Ac − As)/Ac × 100, where Ac is the absorbance of the control and As is the absorbance of the sample. For hMAO-A, clorgyline was used as a positive control.
(§5) Kinetic parameters were analyzed using SigmaPlot (v12.0, SPP Inc., Chicago, IL, USA).

[6] = biological target: hD1R (Homo sapiens, UniProt P21728); assay: Cell-based functional GPCR assay, cAMP, CHO-D1R; conditions: for % Stimulation, hD1R: 100 μM compound, % of control agonist response (10 μM DA)
Experimental: as §1, §3

[7] = biological target: T4, h5HT1AR (Homo sapiens, UniProt P08908); assay: Cell-based functional GPCR assay, Ca2+ mobilization, Ba/F3-5HT1AR; conditions: for % Stimulation, h5HT1AR: 100 μM compound, % of control agonist response (2.5 μM serotonin)
T4 construct: host or cells: Ba/F3 (Ba/F3-5HT1AR)
T4 sequence (P08908 1-422): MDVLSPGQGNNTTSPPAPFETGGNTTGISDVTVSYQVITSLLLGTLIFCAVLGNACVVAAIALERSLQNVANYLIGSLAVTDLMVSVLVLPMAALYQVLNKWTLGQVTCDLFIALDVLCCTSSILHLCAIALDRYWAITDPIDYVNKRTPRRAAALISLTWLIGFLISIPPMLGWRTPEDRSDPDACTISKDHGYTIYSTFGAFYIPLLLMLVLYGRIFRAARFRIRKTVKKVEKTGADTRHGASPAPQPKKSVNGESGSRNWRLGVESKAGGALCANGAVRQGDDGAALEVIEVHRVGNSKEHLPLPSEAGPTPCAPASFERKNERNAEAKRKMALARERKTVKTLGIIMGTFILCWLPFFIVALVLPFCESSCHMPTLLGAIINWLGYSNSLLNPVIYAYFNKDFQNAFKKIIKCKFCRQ
Experimental: as §1, §2

[8] = biological target: T5, hMAO-A (Homo sapiens, UniProt P21397); assay: In vitro hMAO-A inhibition and enzyme kinetics, chemiluminescent MAO-Glo assay; type: biochemical; conditions: recombinant hMAO-A; mean ± SD of triplicate experiments
T5 construct: purchased Sigma-Aldrich
T5 sequence (P21397 1-527): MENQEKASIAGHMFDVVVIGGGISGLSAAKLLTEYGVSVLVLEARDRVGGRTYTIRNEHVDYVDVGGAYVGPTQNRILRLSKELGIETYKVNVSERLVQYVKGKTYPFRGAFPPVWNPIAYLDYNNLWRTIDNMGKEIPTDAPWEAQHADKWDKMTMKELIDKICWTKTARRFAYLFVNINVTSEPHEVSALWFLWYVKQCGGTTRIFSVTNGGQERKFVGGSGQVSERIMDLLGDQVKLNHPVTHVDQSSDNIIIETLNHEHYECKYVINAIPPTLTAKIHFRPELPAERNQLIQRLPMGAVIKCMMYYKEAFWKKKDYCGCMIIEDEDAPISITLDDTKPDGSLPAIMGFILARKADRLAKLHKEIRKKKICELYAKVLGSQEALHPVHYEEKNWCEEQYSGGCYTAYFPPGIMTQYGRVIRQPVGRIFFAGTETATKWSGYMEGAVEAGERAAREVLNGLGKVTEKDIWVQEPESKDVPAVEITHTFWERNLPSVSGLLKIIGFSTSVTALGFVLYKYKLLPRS
Experimental: as §4, §5

[9] = parameters: method as in PMID 31173966; conditions: cited from earlier work
[10] = system: MAO-A; parameters: method as in earlier work; conditions: ref 49 (Park et al. 2020); cited from earlier work

Sequence of hD3R (P35462 whole entry): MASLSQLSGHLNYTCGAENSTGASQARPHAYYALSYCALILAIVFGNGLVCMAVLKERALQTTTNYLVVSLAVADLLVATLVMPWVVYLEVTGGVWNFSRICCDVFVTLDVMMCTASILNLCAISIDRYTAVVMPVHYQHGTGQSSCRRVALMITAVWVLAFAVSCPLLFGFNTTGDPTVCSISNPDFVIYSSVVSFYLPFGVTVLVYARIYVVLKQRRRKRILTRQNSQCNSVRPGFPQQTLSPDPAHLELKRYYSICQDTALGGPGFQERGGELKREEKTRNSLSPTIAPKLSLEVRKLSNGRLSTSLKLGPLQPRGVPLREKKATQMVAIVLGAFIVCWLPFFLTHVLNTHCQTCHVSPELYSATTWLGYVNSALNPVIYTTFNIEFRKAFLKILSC
Sequence of hD1R (P21728 whole entry): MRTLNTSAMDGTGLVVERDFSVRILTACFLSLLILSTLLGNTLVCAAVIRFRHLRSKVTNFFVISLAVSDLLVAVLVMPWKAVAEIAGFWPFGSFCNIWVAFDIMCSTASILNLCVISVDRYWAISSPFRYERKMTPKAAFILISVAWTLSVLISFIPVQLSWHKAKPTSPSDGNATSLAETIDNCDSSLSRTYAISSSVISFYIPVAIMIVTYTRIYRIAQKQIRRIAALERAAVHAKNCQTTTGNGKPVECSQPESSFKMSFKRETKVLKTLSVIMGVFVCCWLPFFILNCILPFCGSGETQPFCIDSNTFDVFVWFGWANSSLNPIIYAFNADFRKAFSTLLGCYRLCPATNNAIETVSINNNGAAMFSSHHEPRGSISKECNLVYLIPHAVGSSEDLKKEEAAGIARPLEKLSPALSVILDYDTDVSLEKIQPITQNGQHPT
T1 sequence (P14416 whole entry): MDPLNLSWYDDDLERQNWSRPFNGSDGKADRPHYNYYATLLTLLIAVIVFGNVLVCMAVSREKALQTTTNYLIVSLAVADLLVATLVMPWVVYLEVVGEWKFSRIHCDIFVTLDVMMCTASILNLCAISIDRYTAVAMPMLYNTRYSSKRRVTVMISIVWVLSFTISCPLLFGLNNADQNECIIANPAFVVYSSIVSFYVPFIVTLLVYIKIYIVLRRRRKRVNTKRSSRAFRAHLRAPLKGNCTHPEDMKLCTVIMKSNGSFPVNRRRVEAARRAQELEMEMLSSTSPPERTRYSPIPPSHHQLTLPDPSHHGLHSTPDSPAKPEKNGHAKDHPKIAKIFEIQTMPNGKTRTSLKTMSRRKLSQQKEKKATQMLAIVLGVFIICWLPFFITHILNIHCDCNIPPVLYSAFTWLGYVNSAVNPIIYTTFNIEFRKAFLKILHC

Compound | inhibition at 100 µM [1] [%] | % Stimulation, hD2LR [1] [%] | inhibition at 100 µM [2] [%] | inhibition at 100 µM [4] [%] | % Stimulation, hD4.4R [4] [%] | IC50 [5] | inhibition at 100 µM [6] [%] | % Stimulation, hD1R [6] [%] | inhibition at 100 µM [7] [%] | % Stimulation, h5HT1AR [7] [%] | IC50 [8] [µM] | SI (selective index) [5] | further results
O=c1cc(-c2ccc(O)c(O)c2)oc2cc(O)ccc12 [Compound 1, 3′,4′,7-trihydroxyflavone] | -40 | −22.45 ± 2.05 | -0.97 | 134 | 10.33 ± 7.46 | > 150 µM | 0.7 | 6.95 ± 14.07 | 18.1 | −2.9 ± 0.28 | – | – | % Stimulation, hD3R ([2]; 100 μM compound, % of control agonist response (300 nM DA)): 38.5 ± 5.94%; Immobility time in forced swimming test ([3]; 3, 10, and 30 mg/kg p.o., 1 h before FST): did not reduce the immobility time; also recorded: none of those doses alleviated the immobility time; also recorded: did not show an antidepressant effect; inhibition at 12.5 µM ([4]; 12.5 µM compound, read-out: % inhibition of the response of the control agonist, hD4.4R): 40.9%; inhibition at 25 µM ([4]; 25 µM compound, read-out: % inhibition of the response of the control agonist, hD4.4R): 57.6%; inhibition at 50 µM ([4]; 50 µM compound, read-out: % inhibition of the response of the control agonist, hD4.4R): 69%; IC50 ([4]; read-out: IC50, antagonist effect at hD4.4R): 22.5 ± 2.18 µM
O=c1c(-c2ccc(O)c(O)c2)coc2cc(O)ccc12 [Compound 2, 3′,4′,7-trihydroxyisoflavone] | -25.8 | −18.35 ± 0.78 | -8 | -11.2 | 35.8 ± 10.59 | ~70 µM and 71.2 µM | 22.2 | −3.1 ± 5.66 | 7.3 | −1.1 ± 0.42 | 177 ± 7.8 | 2.48 | –
COc1ccc(-c2coc3cc(O)ccc3c2=O)cc1O [Compound 3, calycosin] | -18.6 | −13.8 ± 0.28 | -7.97 | -27.3 | 33.63 ± 12.10 | 7.19 ± 0.32 µM | 47.8 | 5.65 ± 11.53 | 16.8 | 2.5 ± 0.42 | 114 ± 3.39 | 15.82 | Ki ([5]; Lineweaver–Burk plot and its secondary plots, read-out: Inhibition constants (Ki) hMAO-B): 2.56 µM; Inhibition mode, hMAO-B ([5]; secondary plot of slopes (Kmapp/Vmaxapp) versus concentrations of inhibitor): Competitive
C=C(C)[C@@H]1CCC(C)=C[C@H]1c1c(O)cc(CCCCC)cc1O [cannabidiol] | – | – | – | – | – | – | – | – | – | – | – | – | Effect on depressive symptoms ([9]; 10 mg/kg i.v. weekly for four weeks): significantly improve depressive symptoms; Effect on depressive symptoms ([9]; 10 mg/kg p.o.): no significant effects; Effect on depressive symptoms ([9]; 100 mg/kg p.o. weekly for four weeks): significantly improve depressive symptoms
CNCCCN1c2ccccc2CCc2ccccc21 [desipramine, reference compound] | – | – | – | – | – | – | – | – | – | – | – | – | Immobility time in forced swimming test ([3]; 15 mg/kg dose p.o., positive control): significant reduction in immobility time
O=c1cc(-c2ccc(O)c(O)c2)oc2cc(O)cc(O)c12 [luteolin, 3′,4′,5,7-tetrahydroxyflavone] | – | – | – | – | – | – | – | – | – | – | – | – | IC50 [10]: 8.57 ± 0.47 µM

From publication PMC10650131 (International Journal of Molecular Sciences, 2023)
